The subject of assay [1] is wild type HeLa cells. In words: Etoposide-induced apoptosis of wild type HeLa cells. The assay is classed as cell-based, human. The settings on record: compound 10^−8 M 1 h, etoposide 5×10^−5 M 6 hour. The source says:
CMV promoter alone and CMV promoter-driven cDNA for mERα or mErβ were stably transfected into HeLa cells. […] Cells were trypsinized, pelleted and trypan blue positive cells enumerated. Each bar represents mean of duplicate experiments ±SEM. *P<0.02 versus etoposide alone.
(§1) In this experiment, instead of calvaria cells, human HeLa cells which contain undetectable, if any, estrogen receptor were used. HeLa cells were stably transfected with either a CMV promoter-driven cDNA for the murine estrogen receptor-alpha (mERα) or a CMV promoter-driven cDNA for the murine estrogen receptor-beta (mERβ). […] Cells were trypsinized, pelleted and trypan blue positive cells were enumerated.

Assay [2] has as its system osteoblastic cells derived from murine calvaria. Put plainly: Etoposide-induced apoptosis of osteoblastic cells derived from murine calvaria (trypan blue uptake). It counts as cell-based. As to the method:
Osteoblastic cells derived from murine calvaria were pretreated with the sterols for 1 hour before the addition of the pro-apoptotic agent, etoposide. Apoptosis was determined after 6 hours by trypan blue uptake (Jilka et al, J. Bone and Min. Res. 13:793:802, 1998). * indicates p<0.05 versus etoposide alone, by analysis of variance (ANOVA) (Student-Newman-Keuls method).
Osteoblastic cells derived from murine calvaria were pretreated for 1 hour with the pure receptor antagonist ICI182,780 (10^−7 M) before the addition of the test agents (10^−8 M). Apoptosis was induced and quantified as described in FIG. 3. * indicates p<0.05 versus etoposide alone, by ANOVA (Student-Newman-Keuls method).
In this experiment, osteoblastic cells were derived from murine calvaria and were pretreated with the sterols for 1 hour before the addition of the pro-apoptotic agent, etoposide.
In these experiments, cells were pretreated with the indicated concentrations of the various compounds for 1 hour, in the absence or presence of the androgen receptor antagonist flutamide, before the addition of the proapoptotic agent etoposide. Apoptosis was determined after 6 hours by trypan blue uptake as described in FIG. 3.

The subject of assay [3] is HeLa cells transfected with estrogen receptor β (mERβ). Put plainly: Etoposide-induced apoptosis of HeLa cells stably transfected with mERβ. The assay is classed as cell-based, human. To be noted: compound 10^−8 M 1 h, etoposide 5×10^−5 M 6 hour.
Description: (§2) CMV promoter alone and CMV promoter-driven cDNA for mERα or mErβ were stably transfected into HeLa cells. […] Cells were trypsinized, pelleted and trypan blue positive cells enumerated.
as §1

Assay [4] has as its system extracellular signal regulated kinases (ERKs) 1 and 2. In words: Western blot of phosphorylated ERK1/2 in MLO-Y4 osteocytic cells. It counts as cell-based, murine. Here is the method: (§3) MLO-Y4 osteocytic cells were incubated for 25 minutes in serum-free medium. […] Cell lysates were prepared and proteins were separated by electrophoresis in polyacrylamide gels and transferred to PVDF membranes. Western blotting was performed using a specific antibody recognizing phosphorylated ERKs 1 and 2, followed by reblotting with an antibody recognizing total ERKs. Blots were developed by enhanced chemiluminescence.
MLO-Y4 cells were incubated for 25 minutes in serum-free medium in the presence or absence of 50 μM PD98059. […] Cell lysates were prepared and proteins were separated by electrophoresis in polyacrylamide gels and transferred to PVDF membranes. Western blotting was performed using a specific antibody recognizing phosphorylated ERKs 1 and 2, followed by reblotting with an antibody recognizing total ERKs. Blots were developed by enhanced chemiluminescence.
as §3, with “In this experiment, MLO-Y4” for “MLO-Y4”, “extracellular signal regulated kinases” for “ERKs”, “extracellular signal regulated kinases.” for “ERKs.”, “chemiluminescence. […] This effect is too rapid to be accounted for by the classical mechanism of estrogen action.” for “chemiluminescence.”
In this experiment, MLO-Y4 osteocytic cells were incubated for 25 minutes in serum-free medium in the presence or absence of 50 μM PD98059. […] Cell lysates were prepared and proteins were separated by electrophoresis in polyacrylamide gels and transferred to PVDF membranes. Western blotting was performed using a specific antibody recognizing phosphorylated extracellular signal regulated kinases 1 and 2, followed by reblotting with an antibody recognizing total extracellular signal regulated kinases. Blots were developed by enhanced chemiluminescence.
A general note: Immunoblotting shows a protein as a band on a membrane.

The nature of assay [5]: Vertebral compression strength of fifth lumbar vertebrae (L5). It counts as in vivo, mice. The settings on record: 2000 ng/g body weight for 28 days, mean. Here is the method: In a representative experiment of this sort, seven 4-5 month old female mice per group are screened twice for BMD in a four week period immediately prior to the initiation of the experiment to establish that peak adult bone mass has been attained. A subset of mice are then ovariectomized. Intact and ovariectomized mice are treated with vehicle, or 20, 200 or 2000 ng/g body weight estratriene-3-ol or another ANGEL compound. […] Ultimate load bearing properties of the fifth lumbar murine vertebrae (L5) is determined. This is done using a servohydraulic axial-torsional material testing machine (Model MTS 810 Bionx; MTS Systems Corp., Eden Prairie, Minn.) and a Lebow load cell (Eaton Products, Troy, Mich.). Data are recorded and analyzed using the LabVIEW software package and an acquisition/signal conditioning board (Model NB-MIO-16, National Instruments Corporation, Austin, Tex.). The L5 specimens that is used for ultimate load bearing is cleaned of surrounding soft tissue and the length and diameter recorded with a digital caliper at a resolution of 0.01 mm (Mitutoyo Model #500-196, Ace Tools, Ft. Smith, Ark.). […] Vertebrae are individually compressed between parallel loading platens along the cephalocaudad axis until failure and the ultimate load (in Newtons) and displacement (in mm) are recorded. […]

The test system of assay [6] is HeLa cells transfected with the estrogen receptor α (mERα). Put plainly: Etoposide-induced apoptosis of HeLa cells stably transfected with mERα. It counts as cell-based, human. The settings on record: compound 10^−8 M 1 h, etoposide 5×10^−5 M 6 hour.
Description: as §2, §1

In the case of `C[C@@]12CCC[C@H]1[C@@H]1CCc3cc(O)ccc3[C@H]1CC2` [estratriene-3-ol], the “Effect on etoposide-induced apoptosis” value in assay [1] is “none of the three compounds had any effect”; in assay [3], “potently inhibited”; in assay [6], “potently inhibited”. The “Inhibition of etoposide-induced osteoblast apoptosis” value in assay [2] (1 hour pretreatment before etoposide) is listed as “inhibition of etoposide-induced osteoblastic cell apoptosis was demonstrated”. In addition, the “Anti-apoptotic effect on osteoblastic cells after ICI182,780” value in assay [2] (compound 10^−8 M, 1 h pretreatment with ICI182,780 10^−7 M) was “abrogated”. For the same molecule, the “Activation of ERKs (phosphorylated fraction of ERK1/2)” value in assay [4] (10^−8 M, 5, 15 or 30 minutes) was “activated”. Further, in assay [4] (compound 10^−8 M, 5 minutes, 50 μM PD98059), the “Ability to activate ERKs in the presence of PD98059” value is given as “abrogated”. Further, the “Vertebral Compression” value in assay [5] (Ovx mice, p < 0.00001) is 85.57 ± 10.17 Newtons; in assay [5] (intact mice, p < 0.006) it was 96.26 ± 15.92 Newtons.

For the origin of these results see patent publication US20050026223A1, “Method and compositions for increasing bone mass” (The Board of Trustees of the University of Arkansas, priority 1999, published 2005).
